Consider 29 compounds from US7241791B2, “Substituted 4-(indazol-3-yl)phenols” (Wyeth, priority 2002, dated 2007).

The target of this experiment is T1, human ERα (Homo sapiens, UniProt P03372).
T1 sequence (P03372 1-595): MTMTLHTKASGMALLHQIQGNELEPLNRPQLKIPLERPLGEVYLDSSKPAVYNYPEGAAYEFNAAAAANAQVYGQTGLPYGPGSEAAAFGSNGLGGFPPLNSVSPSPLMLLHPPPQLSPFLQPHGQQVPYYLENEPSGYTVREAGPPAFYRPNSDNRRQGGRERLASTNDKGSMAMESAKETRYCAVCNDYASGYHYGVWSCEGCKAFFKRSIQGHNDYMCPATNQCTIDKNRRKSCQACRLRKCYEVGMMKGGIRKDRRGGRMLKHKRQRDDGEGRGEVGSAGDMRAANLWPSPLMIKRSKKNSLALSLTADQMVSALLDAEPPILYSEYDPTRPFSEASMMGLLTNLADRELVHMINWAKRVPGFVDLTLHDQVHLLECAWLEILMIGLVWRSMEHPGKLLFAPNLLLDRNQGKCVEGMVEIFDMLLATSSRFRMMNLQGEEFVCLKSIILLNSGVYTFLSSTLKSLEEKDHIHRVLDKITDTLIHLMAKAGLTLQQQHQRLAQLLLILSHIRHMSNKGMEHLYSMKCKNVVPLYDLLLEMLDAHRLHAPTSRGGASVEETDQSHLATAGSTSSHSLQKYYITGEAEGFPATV
As to the kind of experiment: NF-κB luciferase reporter (ER/NF-KB-luc) in Ad5-wt-hERα infected HAECT-1 cells. The conditions noted are these: for IC50: ER/NF-KB-luc IC50, Ad5-wt-ER infected HAECT-1 cells, IL-1β. For orientation: A reporter such as luciferase makes a cellular process visible.

The mark [1] stands for this setting: HAECT1, read-out: ER/NF-KB-luc % E2, efficacy relative to the maximal inhibition observed with E2.
Setting [2] is: HAECT1, read-out: ER/NF-KB-luc % E2.

Like-named read-outs stand apart in the source and are kept apart here.

Regarding `Cn1nc(-c2ccc(O)cc2)c2cc(F)c(Cl)cc21` [Example 125, 4-(6-chloro-5-fluoro-1-methyl-1H-indazol-3-yl)phenol], the IC50 – broadly, the midpoint of a concentration-inhibition curve – came out at 479 nM. Moreover, under setting [1], the Emax was 128%.
On the same counts, the results for `CCCn1nc(-c2ccc(O)cc2)c2cccc(-c3ccc(O)cc3)c21` [Example 103, 4-[3-(4-hydroxyphenyl)-1-propyl-1H-indazole-7-yl]phenol] are 138 nM and 79%.
Take `CCCn1nc2c(F)cccc2c1-c1ccc(O)cc1` [Example 54, 4-(7-fluoro-2-propyl-2H-indazol-3-yl)phenol]: 393 nM corresponded to half-maximal inhibition (IC50). Moreover, the Emax under setting [1] was 77%.
For `CCCn1nc(-c2ccc(O)cc2)c2cccc(Cl)c21` [Example 43, 4-(7-chloro-1-propyl-1H-indazol-3-yl)phenol], the Emax under setting [1] came out at 79%.
With `CCCn1nc(-c2ccc(O)cc2)c2cccc(N3CCOCC3)c21` [Example 105, 4-(7-Morpholin-4-yl-1-propyl-1H-indazole-3-yl)phenol], inhibition was half-maximal at 918 nM (IC50). Moreover, under setting [1], the Emax stood at 66%.
On the same counts, the results for `Oc1ccc(-c2nn(C3CCCCC3)c3c(C(F)(F)F)cccc23)cc1` [Example 32, 4-[1-cyclohexyl-7-(trifluoromethyl)-1H-indazol-3-yl]phenol] are 65 nM and 91%.
Consider `CCNC(=O)Oc1ccc(-c2nn(C3CCCC3)c3c(F)cccc23)cc1` [Example 118, 4-(1-cyclopentyl-7-fluoro-1H-indazol-3-yl)phenyl ethylcarbamate], for which inhibition was half-maximal at 418 nM (IC50). Further, under setting [2], the Emax stood at 66%.
As to `CCCn1nc(-c2ccc(O)cc2)c2cccc(-c3ccc(F)cc3)c21` [Example 104, 4-[7-(4-Fluorophenyl)-1-propyl-1H-indazole-3-yl]phenol], the half-maximal inhibitory concentration (IC50) is 250 nM. Besides, the Emax under setting [1] is 81%.
On the same counts, the results for `CCc1ccc(-c2cccc3c(-c4ccc(O)cc4C)nn(C(C)C)c23)cc1` [Example 251, 4-[7-(4-ethylphenyl)-1-isopropyl-1H-indazol-3-yl]-3-methylphenol] are 24 nM and 57%.
On the same counts, the results for `Oc1ccc(-c2nn(-c3ccc(F)c(Cl)c3)c3cc(O)ccc23)c(O)c1` [Example 24, 4-[1-(3-chloro-4-fluorophenyl)-6-hydroxy-1H-indazol-3-yl]benzene-1,3-diol] are 63 nM and 83%.
As to `CSc1ccc(-c2cccc3c(-c4ccc(O)cc4)nn(C(C)C)c23)cc1` [Example 228, 4-{1-isopropyl-7-[4-(methylthio)phenyl]-1H-indazol-3-yl}phenol], 75 nM corresponded to half-maximal inhibition (IC50). In addition, under setting [1], the Emax was determined as 83%.
On the same counts, the results for `Oc1ccc(-c2nn(C3CCCC3)c3c(-c4cccs4)cccc23)cc1` [Example 238, 4-(1-cyclopentyl-7-thien-2-yl-1H-indazol-3-yl)phenol] are 11 nM and 74%.
On the same counts, the results for `Cc1cc(O)ccc1-c1nn(C2CCCC2)c2c(-c3ccccc3Cl)cccc12` [Example 262, 4-[7-(2-chlorophenyl)-1-cyclopentyl-1H-indazol-3-yl]-3-methyl-phenol] are 8 nM and 75%.
On the same counts, the results for `CCCCCn1nc2c(Cl)cccc2c1-c1ccc(O)cc1` [Example 42, 4-[7-chloro-2-pentyl-2H-indazol-3-yl]phenol] are 190 nM and 102%.
For `Oc1ccc(-c2nn(-c3cccc(F)c3)c3cc(O)ccc23)c(O)c1` [Example 21, 4-[1-(3-fluorophenyl)-6-hydroxy-1H-indazol-3-yl]benzene-1,3-diol], the Emax under setting [2] was 73%.
The compound `CCCn1nc(-c2ccc(O)cc2)c2cccc(-c3ccccc3)c21` [Example 111, 4-(7-phenyl-1-propyl-1H-indazol-3-yl)phenol] showed an IC50 of 214 nM. Also, the Emax under setting [1] was 78%.
On the same counts, the results for `Cc1cc(O)ccc1-c1nn(C(C)C)c2c(-c3ccco3)cccc12` [Example 254, 4-[7-(2-furyl)-1-isopropyl-1H-indazol-3-yl]-3-methylphenol] are 27 nM and 56%.
On the same counts, the results for `CCc1ccc(-c2cccc3c(-c4ccc(O)cc4)nn(C4CCCC4)c23)cc1` [Example 241, 4-[1-cyclopentyl-7-(4-ethylphenyl)-1H-indazol-3-yl]phenol] are 32 nM and 60%.
On the same counts, the results for `CS(=O)(=O)c1ccc(-n2nc(-c3ccc(O)cc3O)c3ccc(O)cc32)cc1` [Example 28, 4-{6-hydroxy-1-[4-(methylsulfonyl)phenyl]-1H-indazol-3-yl}benzene-1,3-diol] are 551 nM and 86%.
For the compound `CCCn1nc(-c2ccc(O)cc2)c2cccc(C)c21` [Example 37, 4-(7-methyl-1-propyl-1H-indazol-3-yl)phenol], the Emax under setting [2] was 95%.
Compound `Oc1ccc(-c2nn(C3CCCC3)c3c(-c4ccccc4Cl)cccc23)cc1` [Example 243, 4-[7-(2-chlorophenyl)-1-cyclopentyl-1H-indazol-3-yl]phenol] had an IC50 of 142 nM. In addition, the Emax under setting [1] turned out to be 83%.
On the same counts, the results for `Cc1cc(O)ccc1-c1nn(C(C)C)c2c(-c3ccc(CO)cc3)cccc12` [Example 249, 4-{7-[14-(hydroxymethyl)phenyl]-1-isopropyl-1H-indazol-3-yl}-3-methylphenol] are 59 nM and 59%.
On the same counts, the results for `CCCn1nc(-c2ccc(OC(=O)CC)cc2)c2cccc(Cl)c21` [Example 123, 4-(7-chloro-1-propyl-1H-indazol-3-yl)phenyl propionate] are 328 nM and 71%.
On the same counts, the results for `CCCCC/C=C/c1cccc2c(-c3ccc(O)cc3C)nn(C(C)C)c12` [Example 248, 4-{7-[(E)-hept-1-enyl]-1-isopropyl-1H-indazol-3-yl}-3-methyl-phenol] are 481 nM and 73%.
`Oc1ccc(-c2nn(C3CCCC3)c3c(-c4ccc(C(F)(F)F)cc4)cccc23)cc1` [Example 237, 4-{1-cyclopentyl-7-[4-(trifluoromethyl)phenyl]-1H-indazol-3-yl}-phenol] displayed a 50% inhibitory concentration (IC50) of 480 nM. Besides, under setting [1], the Emax stood at 79%.
On the same counts, the results for `CCCn1nc(-c2ccc(OC(=O)CC(C)(C)C)cc2)c2cccc(Cl)c21` [Example 122, 4-(7-chloro-1-propyl-1H-indazol-3-yl)phenyl 3,3-dimethylbutanoate] are 350 nM and 78%.
Consider `Oc1ccc(-c2nn(Cc3ccccc3)c3c(C(F)(F)F)cccc23)c(O)c1` [Example 143, 4-[1-benzyl-7-(trifluoromethyl)-1H-indazol-3-yl]benzene-1,3-diol], for which the IC50 was 310 nM. Besides, under setting [1], the Emax was found to be 65%.
`CC(C)n1nc(-c2ccc(O)cc2)c2cccc(-c3ccc(-c4ccccc4)cc3)c21` [Example 233, 4-[7-(1,1′-biphenyl-4-yl)-1-isopropyl-1H-indazol-3-yl]phenol] returned an IC50 of 87 nM. For the same compound, under setting [1], the Emax was determined as 81%.
On the same counts, the results for `CCCCC/C=C/c1cccc2c(-c3ccc(O)cc3C)nn(C3CCCC3)c12` [Example 258, 4-{1-cyclopentyl-7-[(E)-hept-1-enyl]-1H-indazol-3-yl}-3-methyl-phenol] are 644 nM and 77%.
